What all share (format): functional
One test deals with Staphylococcus aureus. Nature of the test: Antibacterial activity against Staphylococcus aureus ATCC 25923 assessed as reduction in microbial growth after 18 hrs by microbroth dilution method. A general note: Broth dilution looks for growth in wells or tubes with falling amounts of substance.
Another test relates to Escherichia coli. Briefly: Antibacterial activity against Escherichia coli ATCC 35218 assessed as reduction in microbial growth after 18 hrs by microbroth dilution method.
Another test has as its system Candida albicans. Briefly: Antifungal activity against Candida albicans ATCC 10231 assessed as reduction in microbial growth after 18 hrs by microbroth dilution method.

Structures are written as SMILES.

The results in this text go back to ChEMBL document CHEMBL4673357, “Antimicrobial Furancarboxylic Acids from a Penicillium sp” (2020).

In general, MIC refers to the least concentration at which growth counts as inhibited. Turning to `CCCC1=C(C(=O)OC)C(=O)[C@@](C)(/C=C/C=C/[C@H](C)O)O1`, the MIC in the test on Staphylococcus aureus is 2.9 mg/L; in the test on Escherichia coli it was 2.9 mg/L; with Candida albicans, 4.4 mg/L.

As for `COC(=O)C1=C(c2ccsc2C)O[C@](C)(/C=C/CC[C@@H](C)O)C1=O`, the MIC with Staphylococcus aureus was determined as 3.5 mg/L; in the test with Escherichia coli, 3.5 mg/L; in the test with Candida albicans, 7 mg/L.

As for `COC(=O)C1=C(C)O[C@](C)(/C=C/CC[C@@H](C)O)C1=O`, the MIC in the test with Staphylococcus aureus was found to be 2.7 mg/L; with Escherichia coli, 5.4 mg/L; with Candida albicans, 5.4 mg/L.

Consider `CCCC1=C(C(=O)OC)C(=O)[C@@](C)(/C=C/CC[C@@H](C)O)O1`, for which the figures for the minimal inhibitory concentration (MIC) in the test on Staphylococcus aureus, with Escherichia coli and in the test with Candida albicans were 3 mg/L, 3 mg/L and 5.9 mg/L, respectively.

Consider `CC/C=C/C=C/[C@@]1(C)OC(c2cc(C(=O)O)sc2C)=C(C(=O)OC)C1=O`, for which the minimal inhibitory concentration (MIC) in the test on Staphylococcus aureus is 1.9 mg/L; with Escherichia coli it was 0.9 mg/L; in the test on Candida albicans, 3.8 mg/L.

`COC(=O)C1=C(C)O[C@](C)(/C=C/CC[C@H](C)O)C1=O`: the figures for the MIC in the test on Staphylococcus aureus, in the test on Escherichia coli and in the test with Candida albicans were 2.7 mg/L, 5.4 mg/L and 5.4 mg/L, respectively.

Regarding `COC(=O)C1=C(c2ccsc2C)O[C@](C)(/C=C/C=C/[C@H](C)O)C1=O`, the minimal inhibitory concentration (MIC) in the test with Staphylococcus aureus was 3.5 mg/L; with Escherichia coli, 7 mg/L; in the test with Candida albicans it was 7 mg/L.

Take `CC/C=C/C=C/[C@@]1(C)OC(c2ccsc2C)=C(C(=O)OC)C1=O`: the results for the minimum inhibitory concentration (MIC) in the test with Staphylococcus aureus, in the test with Escherichia coli and with Candida albicans were 1.7 mg/L, 1.7 mg/L and 3.3 mg/L, respectively.

For the molecule `CCCC1=C(C(=O)OC)C(=O)[C@@](C)(/C=C/C=C/[C@@H](C)O)O1`, the minimum inhibitory concentration (MIC) worked out at 2.9 mg/L with Staphylococcus aureus, 2.9 mg/L in the test on Escherichia coli and 4.4 mg/L with Candida albicans.

Turning to `COC(=O)C1=C(c2ccsc2C)O[C@](C)(/C=C/C=C/[C@@H](C)O)C1=O`, the results for the minimal inhibitory concentration (MIC) in the test on Staphylococcus aureus, in the test with Escherichia coli and with Candida albicans were 3.5 mg/L, 7 mg/L and 7 mg/L, respectively.

For `COC(=O)C1=C(c2ccsc2C)O[C@](C)(/C=C/CC[C@H](C)O)C1=O`, the figures for the MIC in the test on Staphylococcus aureus, with Escherichia coli and in the test with Candida albicans were 3.5 mg/L, 3.5 mg/L and 7 mg/L, respectively.

As for `CCCC1=C(C(=O)OC)C(=O)[C@@](C)(/C=C/CC[C@H](C)O)O1`, the figures for the MIC in the test with Staphylococcus aureus, in the test on Escherichia coli and in the test with Candida albicans were 3 mg/L, 3 mg/L and 5.9 mg/L, respectively.

Consider `C[C@@H]1[C@H](O)[C@@H](C)/C=C/C=C/C=C/C=C/C=C/C=C/C=C/[C@H](O[C@@H]2O[C@H](C)[C@@H](O)[C@H](N)[C@@H]2O)C[C@@H]2O[C@](O)(C[C@@H](O)C[C@@H](O)[C@H](O)CC[C@@H](O)C[C@@H](O)CC(=O)O[C@H]1C)C[C@H](O)[C@H]2C(=O)O` [AMPHOTERICIN B], for which the MIC in the test on Candida albicans turned out to be 0.1 mg/L.

For the molecule `CN[C@@H]1[C@H](O[C@H]2[C@H](O[C@H]3[C@H](O)[C@@H](O)[C@H](N=C(N)N)[C@@H](O)[C@@H]3N=C(N)N)O[C@@H](C)[C@]2(O)C=O)O[C@@H](CO)[C@H](O)[C@H]1O` [STREPTOMYCIN], the values for the MIC in the test on Staphylococcus aureus and in the test with Escherichia coli were 0.1 mg/L and 2.3 mg/L, respectively.
